Test results: US7115629B2, “Carbamates derived from arylalkylamines” (Laboratorios S.A.L.V.A.T., S.A., priority 2000, dated 2006)
Counter-ions that a name gives are not always drawn. Like-named read-outs stand apart in the source and are kept apart here.

Tests used:
human M2 receptors = target: T1, human M2 receptors (Homo sapiens, UniProt P08172); test: Binding test to cloned human M2 muscarinic receptor ([3H]-NMS displacement, CHO-K1 membranes), reported as M2/M3 ratio; conditions: value greater than 1 indicates selectivity for the M3 receptor
T1 construct: purchased Receptor Biology; host or cells: CHO-K1 cells transfected with the human receptor (membranes)
T1 sequence (P08172 1-466): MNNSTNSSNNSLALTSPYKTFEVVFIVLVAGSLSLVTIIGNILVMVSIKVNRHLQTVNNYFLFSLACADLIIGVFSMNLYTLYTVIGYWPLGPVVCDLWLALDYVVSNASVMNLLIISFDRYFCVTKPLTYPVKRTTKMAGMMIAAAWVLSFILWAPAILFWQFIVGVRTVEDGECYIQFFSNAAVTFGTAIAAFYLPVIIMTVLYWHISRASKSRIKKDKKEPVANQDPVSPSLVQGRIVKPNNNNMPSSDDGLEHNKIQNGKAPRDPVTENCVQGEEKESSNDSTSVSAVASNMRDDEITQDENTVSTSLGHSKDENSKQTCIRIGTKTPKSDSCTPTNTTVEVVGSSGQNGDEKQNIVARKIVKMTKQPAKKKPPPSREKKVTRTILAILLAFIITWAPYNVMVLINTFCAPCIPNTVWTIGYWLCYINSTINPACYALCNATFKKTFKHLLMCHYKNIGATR
Procedure: (§1) Membranes from CHO—K1 cells transfected with human M2 or M3 receptors (Receptor Biology) were used. The summarised experimental procedure for both receptors was the following: membranes (15–20 μg) were incubated with [^3H]-NMS (0.3–0.5 nM) for 60 min at 25° C., in presence or absence of the antagonists. Incubation was carried out in 96 wells polystyrene microplates in a total incubation volume of 0.2 mL of PBS pH 7.4. Non specific binding was determined in parallel assays in presence of atropine (5 μM). Samples were filtered through type GF/C glass fibre, preincubated with PEI 0.3%. Filters were washed 3–4 times with 50 mM Tris-HCl, 0.9% NaCl, pH 7.4 at 4° C., and dried at 50° C. for 45 min. Filter bound radioactivity was quantified by liquid scintillation counting.
(§2) For the calculation of the inhibition constant (Ki), displacement curves were analysed by non-linear regression (GraphPad Prism). Dissociation constant (KD) of [^3H]-NMS for each receptor was obtained through the saturation curves obtained in the same conditions as the experiments carried out with the antagonists.

human M3 receptors = target: T2, human M3 receptors (Homo sapiens, UniProt P20309); test: Binding test to cloned human M3 muscarinic receptor ([3H]-NMS displacement, CHO-K1 membranes)
T2 construct: purchased Receptor Biology; host or cells: CHO-K1 cells transfected with the human receptor (membranes)
T2 sequence (P20309 whole entry): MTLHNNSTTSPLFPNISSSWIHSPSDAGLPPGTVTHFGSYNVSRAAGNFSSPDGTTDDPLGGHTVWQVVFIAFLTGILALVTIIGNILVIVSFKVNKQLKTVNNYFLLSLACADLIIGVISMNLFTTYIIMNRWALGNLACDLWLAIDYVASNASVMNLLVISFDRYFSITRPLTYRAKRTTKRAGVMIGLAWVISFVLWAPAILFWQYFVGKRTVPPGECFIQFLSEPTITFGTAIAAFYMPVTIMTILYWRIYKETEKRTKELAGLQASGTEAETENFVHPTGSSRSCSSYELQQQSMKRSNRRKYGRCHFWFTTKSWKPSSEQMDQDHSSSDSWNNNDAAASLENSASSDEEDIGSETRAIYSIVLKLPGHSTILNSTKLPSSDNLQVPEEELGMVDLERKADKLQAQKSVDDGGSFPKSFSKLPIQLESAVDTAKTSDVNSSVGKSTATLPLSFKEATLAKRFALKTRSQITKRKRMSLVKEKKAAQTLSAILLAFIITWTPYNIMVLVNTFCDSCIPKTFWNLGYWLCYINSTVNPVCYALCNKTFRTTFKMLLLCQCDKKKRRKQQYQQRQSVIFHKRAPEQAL
Procedure: as §1, §2

[1] = membranes of CHO-K1 cells transfected with human M3, [3H]-NMS, mean of two independent experiments in duplicate, read-out: M3 (human M3 antagonist activity, binding affinity constant Ki)

Q: What does the source list for `COc1cc(CN(C(=O)OC2CN3CCC2CC3)c2cccc(Cl)c2)ccc1OCc1ccccc1` (stereo not drawn) [Example 51]?
A: M2/M3 (ratio between M2 and M3 receptor affinities) (human M2 receptors): 3; Ki (human M3 receptors; [1]): 51.9 nM

Q: With `N#Cc1ccc(CN(C(=O)OC2CN3CCC2CC3)c2ccccc2)cc1` (stereo not drawn) [Example 43] as the molecule, how does the “M2/M3 (ratio between M2 and M3 receptor affinities)” value (human M2 receptors) read?
A: 31

Q: What about the Ki (human M3 receptors; [1]) of the same molecule?
A: 0.9 nM

Q: With `O=C(O[C@H]1CN2CCC1CC2)N(Cc1ccccc1)c1ccccc1` [Example 2, (R)-3-quinuclidyl N-benzyl-N-phenylcarbamate, hydrochloride] as the molecule, how does the “M2/M3 (ratio between M2 and M3 receptor affinities)” value (human M2 receptors) read?
A: 5

Q: And the Ki (human M3 receptors)?
A: 0.31 nM

Q: What does the source list for `Cc1cccc(N(Cc2ccc3c(c2)OCCO3)C(=O)OC2CN3CCC2CC3)c1` (stereo not drawn) [Example 53]?
A: M2/M3 (ratio between M2 and M3 receptor affinities) (human M2 receptors): 26; Ki (human M3 receptors; [1]): 1.25 nM

Q: Which “M2/M3 (ratio between M2 and M3 receptor affinities)” value (human M2 receptors) does the source give for `O=C(OC1CN2CCC1CC2)N(Cc1ccccc1)c1ccc2c(c1)CCC2` (stereo not drawn) [Example 12] here?
A: 6

Q: What about the Ki (human M3 receptors; [1]) of the same molecule?
A: 30.7 nM

Q: Which results are given for `O=C(OC1CN2CCC1CC2)N(Cc1cccc(F)c1F)c1cccc(Cl)c1` (stereo not drawn) [Example 20]?
A: M2/M3 (ratio between M2 and M3 receptor affinities) (human M2 receptors): 149; Ki (human M3 receptors; [1]): 0.33 nM

Q: Which “M2/M3 (ratio between M2 and M3 receptor affinities)” value (human M2 receptors) does the source give for `O=C(OC1CN2CCC1CC2)N(Cc1ccccc1)c1cccc(Cl)c1` (stereo not drawn) [Example 6] here?
A: 87

Q: What about the Ki (human M3 receptors; [1]) of the same molecule?
A: 0.21 nM

Q: What does the source list for `O=C(OC1CN2CCC1CC2)N(CC1CC2CCC1C2)c1cccc(F)c1` (stereo not drawn) [Example 62]?
A: M2/M3 (ratio between M2 and M3 receptor affinities) (human M2 receptors): 115; Ki (human M3 receptors; [1]): 0.22 nM

Q: With `O=C(OC1CN2CCC1CC2)N(Cc1ccccc1)c1ccccc1O` (stereo not drawn) [Example 14] as the molecule, how does the “M2/M3 (ratio between M2 and M3 receptor affinities)” value (human M2 receptors) read?
A: 21

Q: What about the Ki (human M3 receptors; [1]) of the same molecule?
A: 0.31 nM

Q: `O=C(OC1CN2CCC1CC2)N(Cc1ccccc1Br)c1ccccc1` (stereo not drawn) [Example 16] was tested. Which “M2/M3 (ratio between M2 and M3 receptor affinities)” value (human M2 receptors) did it give?
A: 13

Q: What about the Ki (human M3 receptors; [1]) of the same molecule?
A: 4.23 nM

Q: `Cc1cccc(N(CC2CCC(C)CC2)C(=O)OC2CN3CCC2CC3)c1` (stereo not drawn) [Example 58] was tested. Which “M2/M3 (ratio between M2 and M3 receptor affinities)” value (human M2 receptors) did it give?
A: 93

Q: What about the Ki (human M3 receptors; [1]) of the same molecule?
A: 0.088 nM

Q: How did the “M2/M3 (ratio between M2 and M3 receptor affinities)” value (human M2 receptors) turn out when `Cc1cccc(N(Cc2cc(F)cc(F)c2F)C(=O)OC2CN3CCC2CC3)c1` (stereo not drawn) [Example 34] was run?
A: 90

Q: What about the Ki (human M3 receptors; [1]) of the same molecule?
A: 0.3 nM

Q: `CC(C)(C)c1ccc(CN(C(=O)OC2CN3CCC2CC3)c2ccccc2)cc1` (stereo not drawn) [Example 41] was tested. Which “M2/M3 (ratio between M2 and M3 receptor affinities)” value (human M2 receptors) did it give?
A: 271

Q: And the Ki (human M3 receptors; [1])?
A: 0.11 nM

Q: For `O=C(OC1CN2CCC1CC2)N(Cc1ccc(C(F)(F)F)cc1)c1ccccc1` (stereo not drawn) [Example 39], which “M2/M3 (ratio between M2 and M3 receptor affinities)” value (human M2 receptors) is on record?
A: 84

Q: What about the Ki (human M3 receptors; [1]) of the same molecule?
A: 0.32 nM

Q: `O=C(OC1CN2CCC1CC2)N(Cc1ccc(Cl)cc1Cl)c1ccc(F)cc1F` (stereo not drawn) [Example 21] was tested. Which “M2/M3 (ratio between M2 and M3 receptor affinities)” value (human M2 receptors) did it give?
A: 5

Q: And the Ki (human M3 receptors; [1])?
A: 105 nM

Q: Which “M2/M3 (ratio between M2 and M3 receptor affinities)” value (human M2 receptors) does the source give for `Cc1cccc(N(Cc2cccc(O)c2)C(=O)OC2CN3CCC2CC3)c1` (stereo not drawn) [Example 46] here?
A: 33

Q: What about the Ki (human M3 receptors; [1]) of the same molecule?
A: 0.15 nM

Q: Which “M2/M3 (ratio between M2 and M3 receptor affinities)” value (human M2 receptors) does the source give for `C[N+]12CCC(CC1)C(OC(=O)N(Cc1ccc(F)cc1)c1ccccc1)C2.[I-]` (stereo not drawn) [Example 64] here?
A: 30

Q: What about the Ki (human M3 receptors; [1]) of the same molecule?
A: 3.6 nM

Q: Which results are given for `O=C(O[C@H]1CN2CCC1CC2)N(Cc1ccccc1)c1c(F)cccc1F` [Example 8]?
A: M2/M3 (ratio between M2 and M3 receptor affinities) (human M2 receptors): 11; Ki (human M3 receptors; [1]): 0.2 nM

Q: How did the “M2/M3 (ratio between M2 and M3 receptor affinities)” value (human M2 receptors) turn out when `O=C(OC1CN2CCC1CC2)N(CC1CC2C=CC1C2)c1ccccc1` (stereo not drawn) [Example 63] was run?
A: 64

Q: What about the Ki (human M3 receptors; [1]) of the same molecule?
A: 0.06 nM

Q: Which “M2/M3 (ratio between M2 and M3 receptor affinities)” value (human M2 receptors) does the source give for `O=C(OC1CN2CCC1CC2)N(Cc1ccccc1)c1cccc(Br)c1` (stereo not drawn) [Example 7] here?
A: 19

Q: And the Ki (human M3 receptors; [1])?
A: 2.05 nM

Q: What does the source list for `O=C(OC1CN2CCC1CC2)N(Cc1cccc(OC(F)(F)F)c1)c1ccccc1` (stereo not drawn) [Example 49]?
A: M2/M3 (ratio between M2 and M3 receptor affinities) (human M2 receptors): 7; Ki (human M3 receptors; [1]): 10.1 nM

Q: Which “M2/M3 (ratio between M2 and M3 receptor affinities)” value (human M2 receptors) does the source give for `O=C(OC1CN2CCC1CC2)N(Cc1ccccc1)c1ccccc1F` (stereo not drawn) [Example 5] here?
A: 47

Q: And the Ki (human M3 receptors; [1])?
A: 0.047 nM

Q: What does the source list for `Cc1cccc(N(Cc2ccc(F)cc2F)C(=O)OC2CN3CCC2CC3)c1` (stereo not drawn) [Example 22]?
A: M2/M3 (ratio between M2 and M3 receptor affinities) (human M2 receptors): 21; Ki (human M3 receptors; [1]): 0.51 nM

Q: Which “M2/M3 (ratio between M2 and M3 receptor affinities)” value (human M2 receptors) does the source give for `O=C(OC1CN2CCC1CC2)N(Cc1cccc(F)c1)c1cccc(F)c1` (stereo not drawn) [Example 17] here?
A: 196

Q: What about the Ki (human M3 receptors; [1]) of the same molecule?
A: 0.054 nM

Q: For `Cc1cccc(N(Cc2ccc(C)c(F)c2)C(=O)OC2CN3CCC2CC3)c1` (stereo not drawn) [Example 31], which “M2/M3 (ratio between M2 and M3 receptor affinities)” value (human M2 receptors) is on record?
A: 52

Q: What about the Ki (human M3 receptors; [1]) of the same molecule?
A: 0.32 nM

Q: What does the source list for `C[N+]12CCC(CC1)C(OC(=O)N(Cc1ccccc1)c1ccccc1)C2.[I-]` [Example 3, (R)-3-N-benzyl-N-phenylcarbamoyloxy)-1-methylquinuclidinium iodide]?
A: M2/M3 (ratio between M2 and M3 receptor affinities) (human M2 receptors): 7; Ki (human M3 receptors; [1]): 2.6 nM

Q: Which “M2/M3 (ratio between M2 and M3 receptor affinities)” value (human M2 receptors) does the source give for `Cc1cccc(N(Cc2ccc(F)cc2)C(=O)OC2C[N+]3(C)CCC2CC3)c1.[I-]` (stereo not drawn) [Example 67] here?
A: 19

Q: And the Ki (human M3 receptors; [1])?
A: 3.8 nM
